Key:
HDAC1 enzyme = molecular target: T1, HDAC1 enzyme (Homo sapiens, UniProt Q13547); test: HDAC1 enzyme inhibitory assay (HDAC-Glo I/II Assay kit); assay type: biochemical; conditions: 1 μM test compound; for inhibition at 1 µM: read-out: HDAC1 inhibitory rate (%) (1 μM)
T1 construct: prepared by transducing full length HDAC1 and HDAC6 genes into Sf-9 insect cells; GST; purchased SignalChem; host or cells: Sf-9 insect cells
Summary of the method: (§1)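 Luminescent HDAC-Glo I/II read-out after 20 min room-temperature reaction with substrate-developer, following a 60 min room-temperature enzyme–compound preincubation. Enzymes: full-length HDAC1 or HDAC6 from Sf-9 cells, GST-purified; buffer pH 7.5 Tris with NaCl, glutathione, 0.01% Tween-20. No-enzyme wells defined 100% inhibition.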

HDAC6 enzyme = molecular target: T2, HDAC6 enzyme (Homo sapiens, UniProt Q9UBN7); test: HDAC6 enzyme inhibitory assay (HDAC-Glo I/II Assay kit); assay type: biochemical; conditions: 1 μM test compound; for inhibition at 1 µM: read-out: HDAC6 inhibitory rate (%) (1 μM)
T2 construct: prepared by transducing full length HDAC1 and HDAC6 genes into Sf-9 insect cells; GST; purchased SignalChem; host or cells: Sf-9 insect cells
T2 sequence (Q9UBN7 1-1215): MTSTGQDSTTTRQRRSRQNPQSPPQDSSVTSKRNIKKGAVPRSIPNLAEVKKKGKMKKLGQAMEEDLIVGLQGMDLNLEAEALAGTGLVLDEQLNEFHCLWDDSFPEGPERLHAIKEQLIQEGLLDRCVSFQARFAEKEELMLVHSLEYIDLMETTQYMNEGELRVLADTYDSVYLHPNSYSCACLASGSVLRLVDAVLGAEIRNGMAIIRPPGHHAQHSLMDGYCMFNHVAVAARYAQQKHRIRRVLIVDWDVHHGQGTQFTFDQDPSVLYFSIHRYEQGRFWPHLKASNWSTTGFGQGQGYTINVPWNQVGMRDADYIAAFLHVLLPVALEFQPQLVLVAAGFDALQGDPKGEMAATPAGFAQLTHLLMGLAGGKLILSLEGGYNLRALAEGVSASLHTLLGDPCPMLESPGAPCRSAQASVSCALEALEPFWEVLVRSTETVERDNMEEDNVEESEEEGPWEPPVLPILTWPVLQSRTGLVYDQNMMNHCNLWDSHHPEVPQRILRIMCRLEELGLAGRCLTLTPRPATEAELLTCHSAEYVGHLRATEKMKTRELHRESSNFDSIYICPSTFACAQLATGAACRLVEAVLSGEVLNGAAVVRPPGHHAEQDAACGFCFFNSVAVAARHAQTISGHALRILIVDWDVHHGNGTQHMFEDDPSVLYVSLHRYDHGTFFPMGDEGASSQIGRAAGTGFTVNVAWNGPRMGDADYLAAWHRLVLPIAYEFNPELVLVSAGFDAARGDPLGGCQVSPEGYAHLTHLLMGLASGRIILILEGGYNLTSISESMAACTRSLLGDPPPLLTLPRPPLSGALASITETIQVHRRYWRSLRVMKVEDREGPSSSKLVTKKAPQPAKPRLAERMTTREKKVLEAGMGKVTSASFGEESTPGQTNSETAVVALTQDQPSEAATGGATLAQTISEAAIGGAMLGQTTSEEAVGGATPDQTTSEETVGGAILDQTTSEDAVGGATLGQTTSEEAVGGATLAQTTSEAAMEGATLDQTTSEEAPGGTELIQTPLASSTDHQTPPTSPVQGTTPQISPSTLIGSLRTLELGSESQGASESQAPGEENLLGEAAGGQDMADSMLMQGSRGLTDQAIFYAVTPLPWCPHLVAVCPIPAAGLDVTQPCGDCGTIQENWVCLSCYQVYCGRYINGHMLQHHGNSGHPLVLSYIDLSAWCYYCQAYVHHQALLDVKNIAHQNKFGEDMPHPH
Summary of the method: as §1

T1 sequence (Q13547 whole entry): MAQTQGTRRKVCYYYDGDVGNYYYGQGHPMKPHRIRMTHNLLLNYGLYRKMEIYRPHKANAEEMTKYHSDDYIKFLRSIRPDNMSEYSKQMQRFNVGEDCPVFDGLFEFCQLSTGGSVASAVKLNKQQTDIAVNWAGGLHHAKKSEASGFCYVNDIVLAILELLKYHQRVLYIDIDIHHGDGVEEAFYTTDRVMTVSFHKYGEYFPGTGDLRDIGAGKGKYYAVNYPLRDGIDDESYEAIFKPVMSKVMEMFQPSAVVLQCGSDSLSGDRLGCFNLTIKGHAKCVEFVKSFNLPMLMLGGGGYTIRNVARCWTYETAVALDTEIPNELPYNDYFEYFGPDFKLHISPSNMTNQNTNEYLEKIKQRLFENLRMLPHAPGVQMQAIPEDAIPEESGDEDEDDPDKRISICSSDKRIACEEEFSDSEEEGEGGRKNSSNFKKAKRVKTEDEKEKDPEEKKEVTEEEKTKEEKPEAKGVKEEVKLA

| inhibition at 1 µM (HDAC1 enzyme) | inhibition at 1 µM (HDAC6 enzyme) | HDAC6 inhibitory rate (%) (1 μM) (HDAC6 enzyme) | HDAC1 inhibitory rate (%) (1 μM) (HDAC1 enzyme) | SMILES |
| --- | --- | --- | --- | --- |
| 16% | 92% | – | – | O=C(NC[C@@H]1COCCN1C(=O)C1(c2ccccc2)CC1)c1ccc(-c2noc(C(F)(F)F)n2)cn1 [Example 208, N-(((3R)-4-((1-phenylcyclopropyl)carbonyl)morpholin-3-yl)methyl)-5-(5-(trifluoromethyl)-1,2,4-oxadiazol-3-yl)pyridine-2-carboxamide] |
| 16% | – | 101% | – | COc1cccc(C(=O)N2CCOC[C@@H]2CNC(=O)c2ccc(-c3noc(C(F)(F)F)n3)cc2)c1 [Example 42, N-(((3S)-4-(3-methoxybenzoyl)morpholin-3-yl)methyl)-4-(5-(trifluoromethyl)-1,2,4-oxadiazol-3-yl)benzamide] |
| 6% | 90% | – | – | O=C(NC[C@H]1COCCN1C(=O)N1CCC(CO)CC1)c1ccc(-c2noc(C(F)(F)F)n2)cc1 [Example 278, N-(((3S)-4-((4-(hydroxymethyl)piperidin-1-yl)carbonyl)morpholin-3-yl)methyl)-4-(5-(trifluoromethyl)-1,2,4-oxadiazol-3-yl)benzamide] |
| 76% | 99% | – | – | O=C(NC[C@@H]1COCCN1C(=O)C(F)(F)c1ccccc1)c1ccc(-c2noc(C(F)(F)F)n2)s1 [Example 265, N-(((3R)-4-(difluoro(phenyl)acetyl)morpholin-3-yl)methyl)-5-(5-(trifluoromethyl)-1,2,4-oxadiazol-3-yl)thiophene-2-carboxamide] |
| 50% | 99% | – | – | CCc1noc(C)c1C(=O)N1CCOCC1CNC(=O)c1ccc(-c2noc(C(F)(F)F)n2)cc1 (stereo in doubt) [Example 102, N-(((3S)-4-((3-ethyl-5-methyl-1,2-oxazol-4-yl)carbonyl)morpholin-3-yl)methyl)-4-(5-(trifluoromethyl)-1,2,4-oxadiazol-3-yl)benzamide] |
| – | – | 96% | 7% | O=C(NC[C@H]1COCCN1C(=O)N1CCOCC1CO)c1ccc(-c2noc(C(F)(F)F)n2)cc1 (stereo partly drawn) [Example 311, N-(((3S)-4-((3-(hydroxymethyl)morpholin-4-yl)carbonyl)morpholin-3-yl)methyl)-4-(5-(trifluoromethyl)-1,2,4-oxadiazol-3-yl)benzamide] |
| -1% | 59% | – | – | CN1CCC[C@H]1C(=O)N1CCOC[C@@H]1CNC(=O)c1ccc(-c2noc(C(F)(F)F)n2)cc1 [Example 270, N-(((3S)-4-(1-methyl-L-prolyl)morpholin-3-yl)methyl)-4-(5-(trifluoromethyl)-1,2,4-oxadiazol-3-yl)benzamide] |
| 8% | 99% | – | – | O=C(NC[C@H]1COCCN1C(=O)N1CCCCC1CO)c1ccc(-c2noc(C(F)(F)F)n2)cc1 (stereo partly drawn) [Example 303, N-(((3S)-4-((2-(hydroxymethyl)piperidin-1-yl)carbonyl)morpholin-3-yl)methyl)-4-(5-(trifluoromethyl)-1,2,4-oxadiazol-3-yl)benzamide] |
| 3% | 88% | – | – | O=C(NC[C@H]1COCCN1C(=O)N1CCC(CO)C1)c1ccc(-c2noc(C(F)(F)F)n2)cc1 (stereo partly drawn) [Example 298, N-(((3S)-4-((3-(hydroxymethyl)pyrrolidin-1-yl)carbonyl)morpholin-3-yl)methyl)-4-(5-(trifluoromethyl)-1,2,4-oxadiazol-3-yl)benzamide] |
| 23% | 100% | – | – | O=C(NCC1COCCN1C(=O)CCc1ccccc1)c1ccc(-c2noc(C(F)(F)F)n2)cc1 (stereo not drawn) [Example 22, N-((4-(3-phenylpropanoyl)morpholin-3-yl)methyl)-4-(5-(trifluoromethyl)-1,2,4-oxadiazol-3-yl)benzamide] |
| – | – | 94% | 4% | O=C(NC[C@H]1COCCN1C(=O)N1CCC(CO)C1)c1ccc(-c2noc(C(F)(F)F)n2)cc1 (stereo partly drawn) [Example 299, N-(((3S)-4-((3-(hydroxymethyl)pyrrolidin-1-yl)carbonyl)morpholin-3-yl)methyl)-4-(5-(trifluoromethyl)-1,2,4-oxadiazol-3-yl)benzamide] |
| 5% | 93% | – | – | Cn1nccc1CC(=O)N1CCOC[C@@H]1CNC(=O)c1ccc(-c2noc(C(F)(F)F)n2)cc1 [Example 297, N-(((3S)-4-((1-methyl-1H-pyrazol-5-yl)acetyl)morpholin-3-yl)methyl)-4-(5-(trifluoromethyl)-1,2,4-oxadiazol-3-yl)benzamide] |
| 10% | 96% | – | – | O=C(NC[C@H]1COCCN1C(=O)N1CC2CCC(C1)O2)c1ccc(-c2noc(C(F)(F)F)n2)cc1 [Example 110, N-(((3S)-4-(8-oxa-3-azabicyclo[3.2.1]oct-3-ylcarbonyl)morpholin-3-yl)methyl)-4-(5-(trifluoromethyl)-1,2,4-oxadiazol-3-yl)benzamide] |
| 15% | 96% | – | – | Cn1cc2c(C(=O)N3CCOC[C@@H]3CNC(=O)c3ccc(-c4noc(C(F)(F)F)n4)cc3)cccc2n1 [Example 85, N-(((3S)-4-((2-methyl-2H-indazol-4-yl)carbonyl)morpholin-3-yl)methyl)-4-(5-(trifluoromethyl)-1,2,4-oxadiazol-3-yl)benzamide] |
| 53% | 101% | – | – | O=C(NC[C@H]1COCCN1C(=O)C(F)(F)c1ccccc1)c1ccc(-c2noc(C(F)(F)F)n2)s1 [Example 261, N-(((3S)-4-(difluoro(phenyl)acetyl)morpholin-3-yl)methyl)-5-(5-(trifluoromethyl)-1,2,4-oxadiazol-3-yl)thiophene-2-carboxamide] |
| 8% | 101% | – | – | O=C(NC[C@H]1COCCN1C(=O)N1CCC(F)(F)CC1)c1ccc(-c2noc(C(F)(F)F)n2)cc1 [Example 277, N-(((3S)-4-((4,4-difluoropiperidin-1-yl)carbonyl)morpholin-3-yl)methyl)-4-(5-(trifluoromethyl)-1,2,4-oxadiazol-3-yl)benzamide] |
| 16% | – | 99% | – | N#Cc1cccc(C(=O)N2CCOC[C@@H]2CNC(=O)c2ccc(-c3noc(C(F)(F)F)n3)cc2)c1 [Example 44, N-(((3S)-4-(3-cyanobenzoyl)morpholin-3-yl)methyl)-4-(5-(trifluoromethyl)-1,2,4-oxadiazol-3-yl)benzamide] |
| 28% | 97% | – | – | O=C(NCC1COCCN1C(=O)Cc1cccs1)c1ccc(-c2noc(C(F)(F)F)n2)cc1 (stereo not drawn) [Example 21, N-((4-(2-thienylacetyl)morpholin-3-yl)methyl)-4-(5-(trifluoromethyl)-1,2,4-oxadiazol-3-yl)benzamide] |
| 14% | 84% | – | – | O=C(NC[C@H]1COCCN1C(=O)N1CCC[C@H]1CO)c1ccc(-c2noc(C(F)(F)F)n2)cc1 [Example 107, N-(((3S)-4-(((2S)-2-(hydroxymethyl)pyrrolidin-1-yl)carbonyl)morpholin-3-yl)methyl)-4-(5-(trifluoromethyl)-1,2,4-oxadiazol-3-yl)benzamide] |
| 24% | 98% | – | – | N#Cc1cc(Cl)cc(C(=O)N2CCOC[C@@H]2CNC(=O)c2ccc(-c3noc(C(F)(F)F)n3)cc2)c1 [Example 86, N-(((3S)-4-(3-chloro-5-cyanobenzoyl)morpholin-3-yl)methyl)-4-(5-(trifluoromethyl)-1,2,4-oxadiazol-3-yl)benzamide] |

| SMILES | inhibition at 1 µM (HDAC1 enzyme) | inhibition at 1 µM (HDAC6 enzyme) | HDAC6 inhibitory rate (%) (1 μM) (HDAC6 enzyme) | HDAC1 inhibitory rate (%) (1 μM) (HDAC1 enzyme) |
| --- | --- | --- | --- | --- |
| O=C(NC[C@H]1COCCN1C(=O)N1C2CCC1COC2)c1ccc(-c2noc(C(F)(F)F)n2)cc1 [Example 109, N-(((3S)-4-(3-oxa-8-azabicyclo[3.2.1]oct-8-ylcarbonyl)morpholin-3-yl)methyl)-4-(5-(trifluoromethyl)-1,2,4-oxadiazol-3-yl)benzamide] | 10% | 99% | – | – |
